Here are results for 14 compounds from patent publication US6875760B2 (Novo Nordisk A/S, priority 1999, dated 2005).

As a reminder, the IC50 is the concentration that gives 50% inhibition.

The target in this assay is T1, human glucagon receptor (Homo sapiens, UniProt P47871).
T1 construct: expressed in transfected cells; host or cells: BHK (baby hamster kidney) cells
T1 sequence (P47871 26-477): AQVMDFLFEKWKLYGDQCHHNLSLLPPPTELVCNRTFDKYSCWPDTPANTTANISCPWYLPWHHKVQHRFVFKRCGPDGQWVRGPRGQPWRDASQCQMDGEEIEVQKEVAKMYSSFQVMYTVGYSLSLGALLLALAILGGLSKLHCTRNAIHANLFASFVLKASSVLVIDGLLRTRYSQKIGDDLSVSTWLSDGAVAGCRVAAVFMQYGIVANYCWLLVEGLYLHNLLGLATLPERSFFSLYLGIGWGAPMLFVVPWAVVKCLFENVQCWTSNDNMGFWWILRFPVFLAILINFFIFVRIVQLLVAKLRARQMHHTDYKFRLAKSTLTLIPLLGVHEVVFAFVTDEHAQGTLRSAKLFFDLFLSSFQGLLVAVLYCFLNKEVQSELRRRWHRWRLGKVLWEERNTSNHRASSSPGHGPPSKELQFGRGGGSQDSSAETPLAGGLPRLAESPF
The experiment in a line: Glucagon Binding Assay (III). The settings on record: BHK cell membranes, WGA SPA beads, 125I-glucagon; read-out: Glu Bd Assay (III) IC50. The procedure, abridged:
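Non-specific binding was set with 500 nM glucagon in this SPA-type binding assay using WGA beads. The receptor source was a membrane preparation, kept on ice or at 4 °C, from BHK cells transfected with the human receptor. Scintillation counts were taken after 4 hours of shaking and 8–48 hours of settling.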
On to `CC(C)Cc1ccc(C(=O)N(Cc2ccc(C(=O)Nc3nn[nH]n3)cc2)c2ccc(C3CCCCC3)cc2)cc1` [Example 507, 4-{[(4-Cyclohexylphenyl)-(4-isobutylbenzoyl)amino]methyl}-N-(2H-tetrazol-5-yl)benzamide], for which the IC50 amounted to 444 nM. Consider `O=C(Nc1nn[nH]n1)c1ccc(CN(C(=O)Nc2cccc(S(=O)(=O)C3CCCC3)c2)c2ccc(C3CCCCC3)cc2)cc1` [Example 471], for which the IC50 was 252 nM. Turning to `O=C(Nc1nn[nH]n1)c1ccc(CN(C(=O)NCc2cc(F)cc(C(F)(F)F)c2)c2ccc(C3CCCCC3)cc2)cc1` [Example 270, 4-[1-(4-Cyclohexylphenyl)-3-(3-fluoro-5-trifluoromethylbenzyl)ureidomethyl]-N-(2H-tetrazol-5-yl)benzamide], the IC50 was found to be 64 nM. As for `O=C(O)CCNC(=O)c1ccc(CN(C(=O)c2ccc3c(c2)-c2ccccc2C3=O)c2ccc(C3CCCCC3)cc2)cc1` [Example 522, 3-(4-{[(4-Cyclohexylphenyl)-(9-oxo-9H-fluorene-3-carbonyl)amino]methyl}benzoylamino)propionic acid], the figure is 896 nM. On to `CC(C)(C)C1CCC(N(Cc2ccc(C(=O)Nc3nn[nH]n3)cc2)C(=O)c2cc3ccccc3o2)CC1` (centres unmarked) [Example 475, Benzofuran-2-carboxylic acid (4-tert-butylcyclohexyl)-[4-(2H-tetrazol-5-ylcarbamoyl)benzyl]amide], for which the IC50 was 886 nM. For the compound `Cc1ccc(NC(=O)N(Cc2ccc(C(=O)Nc3nn[nH]n3)cc2)c2ccc(C3CCCCC3)cc2)cc1S(C)(=O)=O` [Example 305, 4-[1-(4-Cyclohexylphenyl)-3-(3-methylsulfonyl-4-methylphenyl)ureidomethyl]-N-(2H-tetrazol-5-yl)benzamide], the IC50 is 55 nM. Take `CCCCc1ccc(N(Cc2ccc(C(=O)Nc3nn[nH]n3)cc2)C(=O)Nc2cccc([N+](=O)[O-])c2)cc1` [Example 288, 4-[1-(4-Butylphenyl)-3-(3-nitrophenyl)ureidomethyl]-N-(2H-tetrazol-5-yl)benzamide]: the IC50 was found to be 75 nM. On to `O=C(Nc1nn[nH]n1)c1ccc(CN(C(=O)Nc2cccc(S(=O)(=O)CC3CC3)c2)c2ccc(C3CCCCC3)cc2)cc1` [Example 470], for which the IC50 was 116 nM.

Turning to `CC(C)Oc1ccc(C(=O)N(Cc2ccc(C(=O)NCCC(=O)O)cc2)C2CCC(C(C)(C)C)CC2)cc1` (centres unmarked) [Example 526, 3-(4-{[(4-tert-Butylcyclohexyl)-(4-isopropoxybenzoyl)amino]methyl}benzoylamino)propionic acid], the IC50 worked out at 1700 nM.

Regarding `CC(C)(C)c1ccc(N(Cc2ccc(C(=O)Nc3nn[nH]n3)cc2)C(=O)Nc2ccc(OC(F)(F)F)cc2)cc1` [Example 374, 4-[1-(4-tert-Butylphenyl)-3-(4-trifluoromethoxyphenyl)ureidomethyl]-N-(2H-tetrazol-5-yl)benzamide], the IC50 is 10 nM.

As to `CCN(c1ccccc1)S(=O)(=O)c1cccc(NC(=O)N(Cc2ccc(C(=O)NCCC(=O)O)cc2)c2ccc(C3CCCCC3)cc2)c1` [Example 265, 3-(4-{1-(4-Cyclohexylphenyl)-3-[3-(ethylphenylsulfamoyl)phenyl]ureidomethyl}benzoylamino)propionic acid], the IC50 was determined as 30 nM. Turning to `CC(C)(C)C1CCC(N(Cc2ccc(C(=O)NCCC(=O)O)cc2)C(=O)Nc2ccccc2-c2ccccc2)CC1` (centres unmarked) [Example 28, 3-{4-[3-Biphenyl-2-yl-1-(4-tert-butylcyclohexyl)ureidomethyl]benzoylamino}propionic acid], the IC50 came to 266 nM. As for `CC(C)c1ccc(NC(=O)N(Cc2ccc(C(=O)NCCC(=O)O)cc2)CC(C)c2ccccc2)cc1` (centres unmarked) [Example 50, 3-{4-[3-(4-Isopropylphenyl)-1-(2-phenylpropyl)ureidomethyl]benzoylamino}propionic acid], the IC50 was determined as 564 nM. As to `CC(=O)c1ccc(NC(=O)N(Cc2ccc(C(=O)Nc3nn[nH]n3)cc2)c2ccc(C3CCCCC3)cc2)cc1` [Example 272, 4-[3-(4-Acetylphenyl)-1-(4-cyclohexylphenyl)ureidomethyl]-N-(2H-tetrazol-5-yl)benzamide], the IC50 was 192 nM.
